Reference: publication PMC5218480 (PLoS ONE, 2017)

Tested on: MV-4-11 cells
Assay: Gene expression microarray analysis (Affymetrix PrimeView) and GSEA
Assay type: cell-based, human
Design: RFU PODN (11730768_x_at) / Fold change /veh PODN (11730768_x_at) / RFU LINC00158 (11744669_a_at) / Fold change /veh LINC00158 (11744669_a_at) / RFU DUSP10 (11751237_a_at) / Fold change /veh DUSP10 (11751237_a_at) / RFU ID3 (11757404_x_at) / Fold change /veh ID3 (11757404_x_at) / RFU PLEKHG5 (11737974_s_at) / Fold change /veh PLEKHG5 (11737974_s_at) / RFU LRRC4B (11730491_at) / Fold change /veh LRRC4B (11730491_at) / RFU GIMAP4 (11747438_a_at) / Fold change /veh GIMAP4 (11747438_a_at) / RFU KRT8 (11758183_x_at) / Fold change /veh KRT8 (11758183_x_at) / RFU CNN1 (11734310_a_at) / Fold change /veh CNN1 (11734310_a_at) / RFU VPS37D (11726825_at) / Fold change /veh VPS37D (11726825_at) / RFU C10orf10 (11716522_x_at) / Fold change /veh C10orf10 (11716522_x_at) / RFU KIR2DL2 /// KIR2DL4 /// KIR2DL5A /// KIR2DL5B /// KIR2DS1 /// KIR2DS2 /// KIR2DS3 /// KIR2DS4 /// KIR3DL3 /// KIR3DL3 /// KIR3DS1 (11738374_at) / Fold change /veh KIR2DL2 /// KIR2DL4 /// KIR2DL5A /// KIR2DL5B /// KIR2DS1 /// KIR2DS2 /// KIR2DS3 /// KIR2DS4 /// KIR3DL3 /// KIR3DL3 /// KIR3DS1 (11738374_at) / RFU C1QL1 (11718748_at) / Fold change /veh C1QL1 (11718748_at) / RFU TMPRSS4 (11747572_a_at) / Fold change /veh TMPRSS4 (11747572_a_at) / RFU HAMP (11756126_x_at) / Fold change /veh HAMP (11756126_x_at) / RFU RNFT2 (11725882_a_at) / Fold change /veh RNFT2 (11725882_a_at) / RFU NR4A2 (11747474_a_at) / Fold change /veh NR4A2 (11747474_a_at) / RFU ABCC12 (11746883_a_at) / Fold change /veh ABCC12 (11746883_a_at) / RFU TMEM136 (11760407_x_at) / Fold change /veh TMEM136 (11760407_x_at) / RFU CLDN22 /// WWC2 (11732394_at) / Fold change /veh CLDN22 /// WWC2 (11732394_at) / RFU HLA-DPB1 (11760878_x_at) / Fold change /veh HLA-DPB1 (11760878_x_at) / RFU SPINT1 (11716480_a_at) / Fold change /veh SPINT1 (11716480_a_at) / RFU GAP43 (11754022_s_at) / Fold change /veh GAP43 (11754022_s_at) / RFU A4GNT (11735810_at) / Fold change /veh A4GNT (11735810_at) / RFU PRB3 (11715151_x_at) / Fold change /veh PRB3 (11715151_x_at) / RFU TUBB4B (11761932_at) / Fold change /veh TUBB4B (11761932_at) / RFU CAPN14 (11732068_a_at) / Fold change /veh CAPN14 (11732068_a_at) / RFU TMCC2 (11721928_a_at) / Fold change /veh TMCC2 (11721928_a_at) / RFU IRGQ (11745062_a_at) / Fold change /veh IRGQ (11745062_a_at) / RFU FAM174B (11720279_a_at) / Fold change /veh FAM174B (11720279_a_at) / RFU TMPRSS4 (11748680_a_at) / Fold change /veh TMPRSS4 (11748680_a_at) / RFU FAM212B (11763350_a_at) / Fold change /veh FAM212B (11763350_a_at) / RFU PLEKHG5 (11743358_a_at) / Fold change /veh PLEKHG5 (11743358_a_at) / RFU ZSCAN30 (11745921_a_at) / Fold change /veh ZSCAN30 (11745921_a_at) / RFU CMKLR1 (11741424_a_at) / Fold change /veh CMKLR1 (11741424_a_at) / RFU LOC101060620 /// MAPK8IP1 (11723275_at) / Fold change /veh LOC101060620 /// MAPK8IP1 (11723275_at) / RFU SPTSSB (11747773_x_at) / Fold change /veh SPTSSB (11747773_x_at) / RFU PRSS12 (11739890_at) / Fold change /veh PRSS12 (11739890_at) / RFU BIN1 (11741810_x_at) / Fold change /veh BIN1 (11741810_x_at) / RFU WNT11 (11732464_a_at) / Fold change /veh WNT11 (11732464_a_at) / RFU C10orf10 (11716521_a_at) / Fold change /veh C10orf10 (11716521_a_at) / RFU C5orf56 (11738089_at) / Fold change /veh C5orf56 (11738089_at) / RFU CYB561 (11721691_x_at) / Fold change /veh CYB561 (11721691_x_at) / RFU ANKRD19P (11752326_a_at) / Fold change /veh ANKRD19P (11752326_a_at) / RFU OR2T12 /// OR2T33 /// OR2T8 (11738714_s_at) / Fold change /veh OR2T12 /// OR2T33 /// OR2T8 (11738714_s_at) / RFU VCAN (11748164_a_at) / Fold change /veh VCAN (11748164_a_at) / RFU JSRP1 (11732532_at) / Fold change /veh JSRP1 (11732532_at) / RFU KRTAP10-11 (11738290_x_at) / Fold change /veh KRTAP10-11 (11738290_x_at) / RFU MYO3A (11730013_a_at) / Fold change /veh MYO3A (11730013_a_at) / RFU EBF3 (11725865_a_at) / Fold change /veh EBF3 (11725865_a_at) / RFU CAMK2N1 (11719241_x_at) / Fold change /veh CAMK2N1 (11719241_x_at) / RFU C5orf56 (11738088_a_at) / Fold change /veh C5orf56 (11738088_a_at) / RFU OLFML3 (11715873_a_at) / Fold change /veh OLFML3 (11715873_a_at) / RFU LOC100653217 /// NTM (11731650_a_at) / Fold change /veh LOC100653217 /// NTM (11731650_a_at) / RFU MAPK11 (11762145_a_at) / Fold change /veh MAPK11 (11762145_a_at) / RFU FIZ1 (11724087_x_at) / Fold change /veh FIZ1 (11724087_x_at) / RFU OASL (11726364_x_at) / Fold change /veh OASL (11726364_x_at) / RFU SOX15 (11748057_x_at) / Fold change /veh SOX15 (11748057_x_at) / RFU CD79A (11719716_a_at) / Fold change /veh CD79A (11719716_a_at) / RFU HIST1H1D (11736915_at) / Fold change /veh HIST1H1D (11736915_at) / RFU CASKIN2 (11723855_a_at) / Fold change /veh CASKIN2 (11723855_a_at) / RFU LOC730098 (11760151_x_at) / Fold change /veh LOC730098 (11760151_x_at) / RFU OR4N2 (11742367_at) / Fold change /veh OR4N2 (11742367_at) / RFU PRRT2 (11749266_a_at) / Fold change /veh PRRT2 (11749266_a_at) / RFU SNX32 (11753110_a_at) / Fold change /veh SNX32 (11753110_a_at) / RFU CDHR5 (11726645_a_at) / Fold change /veh CDHR5 (11726645_a_at) / RFU RCAN1 (11760418_a_at) / Fold change /veh RCAN1 (11760418_a_at) / RFU FAM167A (11723789_a_at) / Fold change /veh FAM167A (11723789_a_at) / RFU FAM26E (11764081_at) / Fold change /veh FAM26E (11764081_at) / RFU ISYNA1 (11749810_s_at) / Fold change /veh ISYNA1 (11749810_s_at) / RFU ACY1 (11761880_at) / Fold change /veh ACY1 (11761880_at) / RFU 11764098_at / Fold change /veh 11764098_at / RFU SAMD14 (11745864_x_at) / Fold change /veh SAMD14 (11745864_x_at) / RFU NPB (11741838_a_at) / Fold change /veh NPB (11741838_a_at) / RFU TMPRSS6 (11731388_a_at) / Fold change /veh TMPRSS6 (11731388_a_at) / RFU KRTAP10-2 (11738614_at) / Fold change /veh KRTAP10-2 (11738614_at) / RFU ARHGAP8 /// PRR5-ARHGAP8 (11727945_x_at) / Fold change /veh ARHGAP8 /// PRR5-ARHGAP8 (11727945_x_at) / RFU KRTAP5-7 /// NADSYN1 (11734609_at) / Fold change /veh KRTAP5-7 /// NADSYN1 (11734609_at) / RFU RASL12 (11751679_a_at) / Fold change /veh RASL12 (11751679_a_at) / RFU CDKN2B (11736163_a_at) / Fold change /veh CDKN2B (11736163_a_at) / RFU PRF1 (11729649_at) / Fold change /veh PRF1 (11729649_at) / RFU, ZNF638 /// ZNF638-IT1 / Fold change vs veh, ZNF638 /// ZNF638-IT1 / RFU, PANK3 / Fold change vs veh, PANK3 / RFU, SH3YL1 / Fold change vs veh, SH3YL1 / RFU, ZEB2 / Fold change vs veh, ZEB2 / RFU, NRIP1 / Fold change vs veh, NRIP1 / RFU, PTTG1IP / Fold change vs veh, PTTG1IP / RFU, CAPN2 / Fold change vs veh, CAPN2 / RFU, MED14 / Fold change vs veh, MED14 / RFU, SNORA58 / Fold change vs veh, SNORA58 / RFU, C1orf63 / Fold change vs veh, C1orf63 / RFU, LRRFIP1 / Fold change vs veh, LRRFIP1 / RFU, NDUFAF7 / Fold change vs veh, NDUFAF7 / RFU, SLC12A2 / Fold change vs veh, SLC12A2 / RFU, IBTK / Fold change vs veh, IBTK / RFU, ESF1 / Fold change vs veh, ESF1 / Fold change vs veh, TMEM50B / RFU, TAOK1 / Fold change vs veh, TAOK1 / RFU, ACBD3 / Fold change vs veh, ACBD3 / RFU, TMA16 / Fold change vs veh, TMA16 / RFU, RWDD3 / Fold change vs veh, RWDD3 / RFU, BCAT1 / Fold change vs veh, BCAT1 / RFU, EDEM3 / Fold change vs veh, EDEM3 / RFU, TMEM33 / Fold change vs veh, TMEM33 / RFU, WDR75 / Fold change vs veh, WDR75 / RFU, AHCTF1 / Fold change vs veh, AHCTF1 / RFU, TFRC / Fold change vs veh, TFRC / RFU, ZDHHC17 / Fold change vs veh, ZDHHC17 / RFU, NOM1 / Fold change vs veh, NOM1 / RFU, ARL8B / Fold change vs veh, ARL8B / RFU, ZBTB11 / Fold change vs veh, ZBTB11 / RFU, TAMM41 / Fold change vs veh, TAMM41 / RFU, KIAA1704 /// LOC100996395 / Fold change vs veh, KIAA1704 /// LOC100996395 / RFU, ING1 / Fold change vs veh, ING1 / RFU, TRMT61B / Fold change vs veh, TRMT61B / RFU, FUBP3 / Fold change vs veh, FUBP3 / RFU, TP53 / Fold change vs veh, TP53 / RFU, TNKS2 / Fold change vs veh, TNKS2 / RFU, ZFP14 / Fold change vs veh, ZFP14 / RFU, ACTR2 / Fold change vs veh, ACTR2 / RFU, PPP3R1 / Fold change vs veh, PPP3R1 / RFU, PIK3R1 / Fold change vs veh, PIK3R1 / RFU, HNRNPA1 / Fold change vs veh, HNRNPA1 / RFU, RNF170 / Fold change vs veh, RNF170 / RFU, ZNF28 / Fold change vs veh, ZNF28 / RFU, RNGTT / Fold change vs veh, RNGTT / RFU, OGT / Fold change vs veh, OGT / RFU, BRD1 / Fold change vs veh, BRD1 / RFU, MARS / Fold change vs veh, MARS / RFU, ZNF655 / Fold change vs veh, ZNF655 / RFU, FAHD1 / Fold change vs veh, FAHD1 / RFU, BDP1 / Fold change vs veh, BDP1 / RFU, LRRCC1 / Fold change vs veh, LRRCC1 / RFU, ARID1A / Fold change vs veh, ARID1A / RFU, ZNF146 / Fold change vs veh, ZNF146 / RFU, ZNF330 / Fold change vs veh, ZNF330 / RFU, GPN3 / Fold change vs veh, GPN3 / RFU, C9orf123 / Fold change vs veh, C9orf123 / RFU, N4BP2L2 / Fold change vs veh, N4BP2L2 / RFU, ARFIP1 / Fold change vs veh, ARFIP1 / RFU, FAM179B / Fold change vs veh, FAM179B / RFU, BCL10 / Fold change vs veh, BCL10 / RFU, UHRF1BP1L / Fold change vs veh, UHRF1BP1L / RFU, BET1 / Fold change vs veh, BET1 / RFU, CNOT2 / Fold change vs veh, CNOT2 / RFU, ZNF268 / Fold change vs veh, ZNF268 / Fold change vs veh, ZNF507 / RFU, DGCR2 / Fold change vs veh, DGCR2 / RFU, WDSUB1 / Fold change vs veh, WDSUB1 / Fold change vs veh, HSP90B1 /// MIR3652 / RFU, ADSS / Fold change vs veh, ADSS / RFU, GK / Fold change vs veh, GK / RFU, ZNF148 / Fold change vs veh, ZNF148 / RFU, TAF9 / Fold change vs veh, TAF9 / RFU, SLC1A5 / Fold change vs veh, SLC1A5 / RFU, SLMO2 / Fold change vs veh, SLMO2 / RFU, ABCC4 / Fold change vs veh, ABCC4 / RFU, LOC101060439 /// RAP1B / Fold change vs veh, LOC101060439 /// RAP1B / RFU, RFX7 / Fold change vs veh, RFX7 / RFU, GTPBP10 / Fold change vs veh, GTPBP10 / RFU, CNEP1R1 / Fold change vs veh, CNEP1R1 / RFU, BIVM-ERCC5 /// ERCC5 / Fold change vs veh, BIVM-ERCC5 /// ERCC5 / RFU, ILF3 / Fold change vs veh, ILF3 / RFU 11762660_at / Fold change /veh 11762660_at / RFU VCAN (11757783_s_at) / Fold change /veh VCAN (11757783_s_at) / RFU DDX43 (11728927_at) / Fold change /veh DDX43 (11728927_at) / RFU KRT8 (11758188_x_at) / Fold change /veh KRT8 (11758188_x_at) / RFU NKD1 (11759106_at) / Fold change /veh NKD1 (11759106_at) / RFU SRD5A1 (11742802_a_at) / Fold change /veh SRD5A1 (11742802_a_at) / RFU TPSAB1 /// TPSB2 (11721975_s_at) / Fold change /veh TPSAB1 /// TPSB2 (11721975_s_at) / RFU GSTM3 (11746129_a_at) / Fold change /veh GSTM3 (11746129_a_at) / RFU IL23R (11737362_x_at) / Fold change /veh IL23R (11737362_x_at) / RFU TMEM51 (11727254_a_at) / Fold change /veh TMEM51 (11727254_a_at) / RFU PIWIL2 (11732686_x_at) / Fold change /veh PIWIL2 (11732686_x_at) / RFU ORM1 (11744905_x_at) / Fold change /veh ORM1 (11744905_x_at) / RFU CCDC152 (11743942_at) / Fold change /veh CCDC152 (11743942_at) / RFU ECM1 (11717891_a_at) / Fold change /veh ECM1 (11717891_a_at) / RFU IL23R (11748794_a_at) / Fold change /veh IL23R (11748794_a_at) / RFU TNFAIP8L3 (11732012_x_at) / Fold change /veh TNFAIP8L3 (11732012_x_at) / RFU MBOAT4 (11741988_at) / Fold change /veh MBOAT4 (11741988_at) / RFU 11764193_at / Fold change /veh 11764193_at / RFU TMEM53 (11763286_at) / Fold change /veh TMEM53 (11763286_at) / RFU MAGEB2 (11727129_at) / Fold change /veh MAGEB2 (11727129_at) / RFU TMEM200A (11744735_a_at) / Fold change /veh TMEM200A (11744735_a_at) / RFU CCDC152 (11751479_a_at) / Fold change /veh CCDC152 (11751479_a_at) / RFU FAM211A (11726209_a_at) / Fold change /veh FAM211A (11726209_a_at) / RFU RGS16 (11746705_a_at) / Fold change /veh RGS16 (11746705_a_at) / RFU VCAN (11755009_s_at) / Fold change /veh VCAN (11755009_s_at) / RFU RHOB (11743442_s_at) / Fold change /veh RHOB (11743442_s_at) / RFU RGS16 (11720943_a_at) / Fold change /veh RGS16 (11720943_a_at) / RFU RGS16 (11720944_at) / Fold change /veh RGS16 (11720944_at) / RFU, VPS4B / Fold change vs veh, VPS4B / RFU, CREB1 / Fold change vs veh, CREB1 / RFU, DNAJC13 / Fold change vs veh, DNAJC13 / RFU, GNAQ / Fold change vs veh, GNAQ / RFU, CDK5R1 / Fold change vs veh, CDK5R1 / RFU, ZRANB3 / Fold change vs veh, ZRANB3 / RFU, CUL4A / Fold change vs veh, CUL4A / RFU, CCNY / Fold change vs veh, CCNY / RFU, UFL1 / Fold change vs veh, UFL1 / RFU, COG3 / Fold change vs veh, COG3 / RFU, DIAPH2 / Fold change vs veh, DIAPH2 / RFU, SKA2 / Fold change vs veh, SKA2 / RFU, AFF3 / Fold change vs veh, AFF3 / RFU, LMF1 / Fold change vs veh, LMF1 / RFU, IPO11 / Fold change vs veh, IPO11 / RFU, DFFB / Fold change vs veh, DFFB / RFU, FOXP1 / Fold change vs veh, FOXP1 / RFU, CARD8 / Fold change vs veh, CARD8 / RFU, STRN3 / Fold change vs veh, STRN3 / RFU, ADK / Fold change vs veh, ADK / RFU, RASSF2 / Fold change vs veh, RASSF2 / RFU, WIPF1 / Fold change vs veh, WIPF1 / RFU, LARP1B / Fold change vs veh, LARP1B / RFU, RASA1 / Fold change vs veh, RASA1 / RFU, RB1 / Fold change vs veh, RB1 / RFU, PPFIA1 / Fold change vs veh, PPFIA1 / RFU, MAT2A / Fold change vs veh, MAT2A / RFU, CCT5 / Fold change vs veh, CCT5 / RFU, WDR92 / Fold change vs veh, WDR92 / RFU, CUX1 / Fold change vs veh, CUX1 / RFU, TTC7A / Fold change vs veh, TTC7A / RFU, TMEM135 / Fold change vs veh, TMEM135 / RFU, DEPTOR / Fold change vs veh, DEPTOR / RFU, CPM / Fold change vs veh, CPM / RFU, DNAJB6 / Fold change vs veh, DNAJB6 / RFU, CACNA2D3 / Fold change vs veh, CACNA2D3 / RFU, DTX4 / Fold change vs veh, DTX4 / RFU, TFCP2 / Fold change vs veh, TFCP2 / RFU, GMCL1 /// GMCL1P1 / Fold change vs veh, GMCL1 /// GMCL1P1 / RFU, AEBP2 / Fold change vs veh, AEBP2 / RFU, SNHG1 /// SNORD22 /// SNORD25 /// SNORD26 /// SNORD27 /// SNORD28 /// SNORD29 /// SNORD31 / Fold change vs veh, SNHG1 /// SNORD22 /// SNORD25 /// SNORD26 /// SNORD27 /// SNORD28 /// SNORD29 /// SNORD31 / Fold change (Aza/veh), C12orf56 (ProbeSet 11735607_a_at) / Fold change (ACY-1035/veh), C12orf56 (ProbeSet 11735607_a_at) / Fold change (Aza/veh), FGFR1OP (ProbeSet 11751329_s_at) / Fold change (ACY-1035/veh), FGFR1OP (ProbeSet 11751329_s_at) / Fold change (Aza/veh), VPS36 (ProbeSet 11739960_a_at) / Fold change (ACY-1035/veh), VPS36 (ProbeSet 11739960_a_at) / RFU SYPL1 (11715823_x_at) / Fold change /veh SYPL1 (11715823_x_at) / RFU IGFBP7 (11715501_s_at) / Fold change /veh IGFBP7 (11715501_s_at) / RFU REEP3 (11722064_at) / Fold change /veh REEP3 (11722064_at) / RFU IGLL1 (11728026_x_at) / Fold change /veh IGLL1 (11728026_x_at): dose or concentration left out as unconfirmed
Details: MV-4-11 cells, 48 hours

Nc1ncn([C@@H]2O[C@H](CO)[C@@H](O)[C@H]2O)c(=O)n1 [azacitidine]
Fold change /veh WNT11 (11732464_a_at): 0.83
